Measurements reported in PubChem BioAssay AID248 (DTP/NCI, 2004).
Several values for one entry are separate records, joined by “and”; a condition that tells them apart may be missing. Equal entries are not always repeated. Inconclusive results and toxic doses are left out. Rule as the data show it: active = T/C of 150% or more; inactive = T/C below 125%.

System: L1210 leukemia ip in BDF1 mice, survival T/C
Assay: NCI In Vivo Anticancer Drug Screen. Data for tumor model L1210 Leukemia (intraperitoneal) in B6D2F1 (BDF1) mice
Details: endpoint: mean survival time, higher = longer survival
Summary of the method: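 Transplanted-tumor mice were given test agent; controls received vehicle only. Survival readings from the two groups were divided (treated over control).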

[1] = dose: 100.0 mg/kg/injection, schedule: Q01DX001 (ip), vehicle: saline
[2] = dose: 200.0 mg/kg/injection, schedule: Q01DX001 (ip), vehicle: saline
[3] = dose: 400.0 mg/kg/injection, schedule: Q01DX001 (ip), vehicle: saline
[4] = dose: 100.0 mg/kg/injection, schedule: Q01DX001 (ip), vehicle: other
[5] = dose: 200.0 mg/kg/injection, schedule: Q01DX001 (ip), vehicle: other
[6] = dose: 400.0 mg/kg/injection, schedule: Q01DX001 (ip), vehicle: other
[7] = dose: 100.0 mg/kg/injection, schedule: Q04DX003 (ip), vehicle: saline
[8] = dose: 200.0 mg/kg/injection, schedule: Q04DX003 (ip), vehicle: saline
[9] = dose: 400.0 mg/kg/injection, schedule: Q04DX003 (ip), vehicle: saline
[10] = dose: 100.0 mg/kg/injection, schedule: Q01DX001 (ip), vehicle: carboxymethylcellulose (CMC)
[11] = dose: 200.0 mg/kg/injection, schedule: Q01DX001 (ip), vehicle: carboxymethylcellulose (CMC)
[12] = dose: 400.0 mg/kg/injection, schedule: Q01DX001 (ip), vehicle: carboxymethylcellulose (CMC)
[13] = dose: 100.0 mg/kg/injection, schedule: Q04DX003 (ip), vehicle: saline with Tween-80
[14] = dose: 200.0 mg/kg/injection, schedule: Q04DX003 (ip), vehicle: saline with Tween-80
[15] = dose: 400.0 mg/kg/injection, schedule: Q04DX003 (ip), vehicle: saline with Tween-80
[16] = dose: 100.0 mg/kg/injection, schedule: Q04DX003 (ip), vehicle: Klucel (hydroxypropylcellulose) (HPC)
[17] = dose: 200.0 mg/kg/injection, schedule: Q04DX003 (ip), vehicle: Klucel (hydroxypropylcellulose) (HPC)
[18] = dose: 75.0 mg/kg/injection, schedule: Q01DX009 (ip), vehicle: saline

Measured: T/C

O=C(NCCCCCCCCCCNC(=O)Nc1ccc(C2=NCC(O)CN2)cc1)Nc1ccc(C2=NCC(O)CN2)cc1 (configuration not stated)
inactive: dose: 4.0 mg/kg/injection, schedule: Q01DX Z (ip), vehicle: water 117 % of control | dose: 8.0 mg/kg/injection, schedule: Q01DX Z (ip), vehicle: water 112 % of control | dose: 16.0 mg/kg/injection, schedule: Q01DX Z (ip), vehicle: water 106 % of control

O=[N+]([O-])c1ccc(OCCOc2ccc([N+](=O)[O-])cc2)cc1
inactive: [1] 103 % of control | [2] 107 % of control | [3] 97 % of control

Cc1ccc(S(=O)(=O)N=S(Cc2ccccc2)Cc2ccccc2)cc1
inactive: dose: 50.0 mg/kg/injection, schedule: Q01DX001 (ip), vehicle: saline sonified 103 % of control | dose: 100.0 mg/kg/injection, schedule: Q01DX001 (ip), vehicle: saline sonified 108 % of control | dose: 200.0 mg/kg/injection, schedule: Q01DX001 (ip), vehicle: saline sonified 95 % of control

CCOc1cc(C=Nc2cc(Br)c(OC)c(Br)c2)ccc1N(CCCl)CCCl
inactive: dose: 4.0 mg/kg/injection, schedule: Q01DX009 (ip), vehicle: carboxymethylcellulose (CMC) 106 % of control | dose: 7.0 mg/kg/injection, schedule: Q01DX009 (ip), vehicle: carboxymethylcellulose (CMC) 115 % of control | dose: 8.9 mg/kg/injection, schedule: Q01DX001 (ip), vehicle: carboxymethylcellulose (CMC) 122 % of control | dose: 11.0 mg/kg/injection, schedule: Q01DX009 (ip), vehicle: carboxymethylcellulose (CMC) 109 % of control | dose: 17.0 mg/kg/injection, schedule: Q01DX009 (ip), vehicle: carboxymethylcellulose (CMC) 123 % of control | dose: 133.0 mg/kg/injection, schedule: Q01DX001 (ip), vehicle: carboxymethylcellulose (CMC) 122 % of control

CCCCCCCC[Si](c1ccc(C)cc1)(c1ccc(C)cc1)c1ccc(C)cc1
inactive: [4] 97 % of control | [5] 95 % of control | [6] 97 % of control

O=[N+]([O-])CC(O)C(O)C(O)C(O)CO (configuration not stated)
inactive: [7] 102 % of control | [8] 102 % of control | [9] 102 % of control

CC1CCc2c(O)ccc(O)c21 (configuration not stated)
inactive: [10] 102 % of control | [11] 96 % of control | [12] 94 % of control

CC(=O)NCC(S)c1ccc(Cl)cc1 (configuration not stated)
inactive: dose: 100.0 mg/kg/injection, schedule: Q01DX009 (ip), vehicle: saline with Tween-80 103 % of control | [13] 112 % of control | dose: 200.0 mg/kg/injection, schedule: Q01DX009 (ip), vehicle: saline with Tween-80 103 % of control | [14] 93 % of control | dose: 400.0 mg/kg/injection, schedule: Q01DX009 (ip), vehicle: saline with Tween-80 103 % of control | [15] 88 % of control

O=C(N1CCOCC1)C1(c2ccccc2)CCNCC1
inactive: [7] 98 % of control | [8] 93 % of control

CCC(C1CCC(O)CC1)C(CC)C1CCC(C2=CC(=O)OC2)CC1 (configuration not stated)
inactive: dose: 25.0 mg/kg/injection, schedule: Q04DX003 (ip), vehicle: saline 100 % of control | dose: 50.0 mg/kg/injection, schedule: Q04DX003 (ip), vehicle: saline 94 % of control | [7] 94 % of control

CC(=O)CC(=O)Nc1cccc(Br)c1
inactive: [13] 102 % of control | [14] 97 % of control | [15] 97 % of control

O=C1C(=O)c2ccccc2-c2ccccc21
inactive: dose: 50.0 mg/kg/injection, schedule: Q04DX003 (ip), vehicle: Klucel (hydroxypropylcellulose) (HPC) 98 % of control | [16] 97 % of control | [17] 98 % of control

CCOC(=O)C1CC(=O)C(C(=O)OCC)CC1=O (configuration not stated)
inactive: [1] 101 % of control | [2] 95 % of control | [3] 95 % of control

O=C(NCCl)Nc1ccccc1
inactive: dose: 25.0 mg/kg/injection, schedule: Q04DX002 (ip), vehicle: saline 106 % of control | dose: 50.0 mg/kg/injection, schedule: Q04DX002 (ip), vehicle: saline 106 % of control | dose: 100.0 mg/kg/injection, schedule: Q04DX002 (ip), vehicle: saline + alcohol 100 % of control | dose: 100.0 mg/kg/injection, schedule: Q04DX002 (ip), vehicle: saline 100 % of control

CCSCN1CCN(CSCC)C(C)C1 (configuration not stated)
inactive: [1] 104 % of control | [2] 106 % of control | [3] 112 % of control

Cc1ccc2c(ccc(C)[n+]2C)c1
inactive: dose: 37.5 mg/kg/injection, schedule: Q01DX009 (ip), vehicle: acetone 117 % of control | dose: 37.5 mg/kg/injection, schedule: Q01DX009 (ip), vehicle: saline 110 % of control and 112 % of control | dose: 75.0 mg/kg/injection, schedule: Q01DX001 (ip), vehicle: saline 100 % of control | [18] 118 % of control and 121 % of control | dose: 150.0 mg/kg/injection, schedule: Q01DX001 (ip), vehicle: saline 108 % of control | dose: 150.0 mg/kg/injection, schedule: Q01DX009 (ip), vehicle: acetone 102 % of control | dose: 300.0 mg/kg/injection, schedule: Q01DX001 (ip), vehicle: saline 105 % of control

CC(CO)(CO)[N+](=O)[O-]
inactive: [7] 101 % of control | [8] 96 % of control | [9] 93 % of control

N#CC(Nc1ccccc1C(N)=O)c1ccccc1 (configuration not stated)
inactive: dose: 100.0 mg/kg/injection, schedule: Q01DX009 (ip), vehicle: saline 95 % of control | dose: 200.0 mg/kg/injection, schedule: Q01DX009 (ip), vehicle: saline 106 % of control | dose: 400.0 mg/kg/injection, schedule: Q01DX009 (ip), vehicle: saline 91 % of control

O=c1[nH]c2ccc(F)cc2c(=O)o1
inactive: [18] 107 % of control | dose: 150.0 mg/kg/injection, schedule: Q01DX009 (ip), vehicle: saline 93 % of control | dose: 300.0 mg/kg/injection, schedule: Q01DX009 (ip), vehicle: saline 94 % of control

NC(CSCc1ccccc1)C(=O)OCc1ccccc1 (configuration not stated)
inactive: dose: 100.0 mg/kg/injection, schedule: Q01DX009 (ip), vehicle: Klucel (hydroxypropylcellulose) (HPC) 98 % of control | [16] 100 % of control | dose: 200.0 mg/kg/injection, schedule: Q01DX009 (ip), vehicle: Klucel (hydroxypropylcellulose) (HPC) 92 % of control | [17] 89 % of control | dose: 400.0 mg/kg/injection, schedule: Q01DX009 (ip), vehicle: Klucel (hydroxypropylcellulose) (HPC) 95 % of control | dose: 400.0 mg/kg/injection, schedule: Q04DX003 (ip), vehicle: Klucel (hydroxypropylcellulose) (HPC) 96 % of control

O=C(C[n+]1ccccc1Br)c1cccc2ccccc12
inactive: dose: 9.38 mg/kg/injection, schedule: Q01DX001 (ip), vehicle: other 103 % of control

Oc1c(Cl)cc(Cl)cc1C1N(Cc2ccc(N(CCCl)CCCl)cc2Cl)CCCN1Cc1ccc(N(CCCl)CCCl)cc1Cl
inactive: dose: 50.0 mg/kg/injection, schedule: Q01DX001 (ip), vehicle: carboxymethylcellulose (CMC) 109 % of control | [10] 105 % of control | [11] 103 % of control | [12] 103 % of control

NC(=O)COc1ccc(F)cc1F
inactive: dose: 100.0 mg/kg/injection, schedule: Q04DX002 (ip), vehicle: saline with Tween-80 101 % of control | dose: 200.0 mg/kg/injection, schedule: Q04DX002 (ip), vehicle: saline with Tween-80 97 % of control | dose: 400.0 mg/kg/injection, schedule: Q04DX002 (ip), vehicle: saline with Tween-80 93 % of control

CC(=O)OCC(OC(C)=O)C(OC(C)=O)C(OC(C)=O)C(O)C#N (configuration not stated)
inactive: dose: 12.5 mg/kg/injection, schedule: Q01DX009 (ip), vehicle: saline with Tween-80 93 % of control | dose: 25.0 mg/kg/injection, schedule: Q01DX009 (ip), vehicle: saline with Tween-80 93 % of control | dose: 50.0 mg/kg/injection, schedule: Q01DX009 (ip), vehicle: saline with Tween-80 97 % of control and 100 % of control

COc1cc(C)c2ccc3ccccc3c2n1
inactive: [4] 93 % of control | [5] 95 % of control | [6] 97 % of control
